Marks after values point to notes of the source that are not given here. Where no end group is shown, it is not given here.
Assays:
[1] = tested on: Colorectal cancer tumor cells; test: MTT proliferation inhibition, colorectal cancer cells; assay type: cell-based, human; set-up: concentration or dose not given beside the values; conditions: 48 h
In short: (§1)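 Tumour cells plated at 2×10^4 cells/mL, attached overnight, then exposed to dilutions of mPEG-HM-1 for 48 h at 37 °C, 5% CO2. MTT added 4 h, formazan dissolved in DMSO, absorbance 570/630 nm; growth inhibition = 1 − treated/untreated, three independent repeats, mean±SD.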

[2] = tested on: Kidney cancer tumor cells; test: MTT proliferation inhibition, kidney cancer cells; assay type: cell-based, human; set-up: concentration or dose not given beside the values; conditions: 48 h
In short: as §1

[3] = tested on: Breast cancer tumor cells; test: MTT proliferation inhibition, breast cancer cells; assay type: cell-based, human; set-up: concentration or dose not given beside the values; conditions: 48 h
In short: as §1

[4] = tested on: Liver cancer tumor cells; test: MTT proliferation inhibition, liver cancer cells; assay type: cell-based, human; set-up: concentration or dose not given beside the values; conditions: 48 h
In short: as §1

[5] = tested on: Ovarian cancer tumor cells; test: MTT proliferation inhibition, ovarian cancer cells; assay type: cell-based, human; set-up: concentration or dose not given beside the values; conditions: 48 h
In short: as §1

[6] = tested on: xylene-induced ear swelling in Kunming mice; test: Xylene-induced ear swelling in mice; assay type: in vivo, mouse; conditions: for Swelling: 2 h after xylene; for Inhibition rate: ear swelling vs control
In short: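 Kunming mice were dosed once daily for 5 days (aspirin 200 mg/kg as positive control, saline as blank). One hour after the last dose, xylene was applied to the right ear, with the left ear as untreated reference. Ear punches were weighed 2 h later; swelling degree = right − left weight, rate = degree/left weight ×100%.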

[7] = tested on: Gastric cancer tumor cells; test: MTT proliferation inhibition, gastric cancer cells; assay type: cell-based, human; set-up: concentration or dose not given beside the values; conditions: 48 h
In short: as §1

[8] = tested on: human retinal vascular endothelial cells (HRCEC); test: MTT proliferation of human retinal vascular endothelial cells; assay type: cell-based; conditions: 48 h; for Inhibition rate: HRCEC proliferation; for A570 nm-A630 nm: HRCEC; for A570 nm-A630 nm / inhibition rate of HRCEC proliferation: MTT
In short: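 HRCEC seeded at 3.0×10^4 cells/mL, adhered overnight, then exposed to polypeptide dilutions for 48 h at 37° C, 5% CO2; medium-only blank control. MTT added for 4 h, formazan dissolved in DMSO. PI (%)=1−administration group/negative group; three independent repeats, mean±SD, t test.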

[9] = tested on: carrageenan-induced toe swelling in SD rats; test: Carrageenan-induced acute toe swelling in rats; assay type: in vivo, rat; set-up: Swelling: unit not given here; conditions: for inhibition of carrageenan-induced toe swelling (in words): rats, once a day for 3 days
In short: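 SD rats dosed with mPEG-HM-1 once daily for 3 days […]; 1 h after last dose, 0.1 mL 1% carrageenan injected subcutaneously into right hind paw. Paw volume measured by liquid displacement at 1, 3, 5 and 7 h; swelling = post- minus pre-inflammation volume (mL).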

[10] = tested on: Pancreatic cancer tumor cells; test: MTT proliferation inhibition, pancreatic cancer cells; assay type: cell-based, human; set-up: concentration or dose not given beside the values; conditions: 48 h
In short: as §1

[11] = 40 mg/kg once a day for 3 days, 1 h after carrageenan
[12] = 40 mg/kg once a day for 3 days, 3 h after carrageenan
[13] = 40 mg/kg once a day for 3 days, 5 h after carrageenan
[14] = 40 mg/kg once a day for 3 days, 7 h after carrageenan
[15] = 80 mg/kg once a day for 3 days, 1 h after carrageenan
[16] = 80 mg/kg once a day for 3 days, 3 h after carrageenan
[17] = 80 mg/kg once a day for 3 days, 5 h after carrageenan
[18] = 80 mg/kg once a day for 3 days, 7 h after carrageenan
[19] = 160 mg/kg once daily for 5 days

## mPEG-SC10k-Arg-Gly-Ala-Asp-Arg-Ala-Gly-Gly-Gly-Gly-Arg-Gly-Asp ({mPEG‑SC 10 kDa}-RGADRAGGGGRGD) [mPEG-SC10k-HM-1]
[1]
  rate of growth inhibition: 61.35 ± 16.88%
[2]
  rate of growth inhibition: 60.07 ± 14.24%
[3]
  rate of growth inhibition: 50.16 ± 13.27%
[4]
  rate of growth inhibition: 57.18 ± 12.35%
[5]
  rate of growth inhibition: 65.89 ± 23.37%
[6]; 10 mg/kg once daily for 5 days
  Swelling: 5.49 ± 0.23 mg
  Inhibition rate: 10.55%
[6]; 20 mg/kg once daily for 5 days
  Swelling: 4.83 ± 0.32* mg
  Inhibition rate: 21.37%
[6]; 40 mg/kg once daily for 5 days
  Swelling: 3.98 ± 0.21** mg
  Inhibition rate: 35.20%
[7]
  rate of growth inhibition: 56.22 ± 16.19%
[8]; 40 μg/mL
  Inhibition rate: 46.44%*
  A570 nm-A630 nm: 0.7020 ± 0.07964
[8]; 60 μg/mL
  Inhibition rate: 55.39%**
  A570 nm-A630 nm: 0.5847 ± 0.07356
[8]; 80 μg/mL
  inhibition rate of HRCEC proliferation: 68.84%
  Inhibition rate: 68.84%*
  A570 nm-A630 nm: 0.4084 ± 0.07298
[9]; 20 mg/kg once a day for 3 days, 1 h after carrageenan
  Swelling: 0.25 ± 0.11
[9]; 20 mg/kg once a day for 3 days, 3 h after carrageenan
  Swelling: 0.38 ± 0.15
[9]; 20 mg/kg once a day for 3 days, 5 h after carrageenan
  Swelling: 0.43 ± 0.17
[9]; 20 mg/kg once a day for 3 days, 7 h after carrageenan
  Swelling: 0.31 ± 0.11
[9]; [11]
  Swelling: 0.22 ± 0.09
[9]; [12]
  Swelling: 0.32 ± 0.19
[9]; [13]
  Swelling: 0.37 ± 0.12
[9]; [14]
  Swelling: 0.34 ± 0.13
[10]
  rate of growth inhibition: 60.53 ± 17.16%

## mPEG-SC20k-Arg-Gly-Ala-Asp-Arg-Ala-Gly-Gly-Gly-Gly-Arg-Gly-Asp ({mPEG‑SC 20 kDa}-RGADRAGGGGRGD) [mPEG-SC20k-HM-1]
[1]
  rate of growth inhibition: 66.19 ± 20.58%
[2]
  rate of growth inhibition: 67.29 ± 18.16%
[3]
  rate of growth inhibition: 52.18 ± 18.28%
[4]
  rate of growth inhibition: 61.09 ± 14.09%
[5]
  rate of growth inhibition: 70.94 ± 20.65%
[6]; 20 mg/kg once daily for 5 days
  Swelling: 5.38 ± 0.17 mg
  Inhibition rate: 12.36%
[6]; 40 mg/kg once daily for 5 days
  Swelling: 4.69 ± 0.79* mg
  Inhibition rate: 23.67%
[6]; 80 mg/kg once daily for 5 days
  Swelling: 3.77 ± 0.33** mg
  Inhibition rate: 38.58%
[7]
  rate of growth inhibition: 66.14 ± 20.08%
[8]; 60 μg/mL
  Inhibition rate: 45.71%*
  A570 nm-A630 nm: 0.7116 ± 0.07539
[8]; 80 μg/mL
  Inhibition rate: 53.92%**
  A570 nm-A630 nm: 0.6040 ± 0.06996
[8]; 100 μg/mL
  Inhibition rate: 66.64%*
  A570 nm-A630 nm: 0.4372 ± 0.0721
[9]; [11]
  Swelling: 0.28 ± 0.14
[9]; [12]
  Swelling: 0.35 ± 0.17
[9]; [13]
  Swelling: 0.42 ± 0.15
[9]; [14]
  Swelling: 0.37 ± 0.16
[9]; [15]
  Swelling: 0.26 ± 0.10
[9]; [16]
  Swelling: 0.33 ± 0.12
[9]; [17]
  Swelling: 0.40 ± 0.13
[9]; [18]
  Swelling: 0.32 ± 0.17
[9]; 80 mg/kg
  inhibition of carrageenan-induced toe swelling (in words): most effective
[10]
  rate of growth inhibition: 62.63 ± 18.13%

## mPEG-SC40k-Arg-Gly-Ala-Asp-Arg-Ala-Gly-Gly-Gly-Gly-Arg-Gly-Asp ({mPEG‑SC 40 kDa}-RGADRAGGGGRGD) [mPEG-SC40k-HM-1]
[1]
  rate of growth inhibition: 62.45 ± 19.22%
[2]
  rate of growth inhibition: 62.23 ± 16.51%
[3]
  rate of growth inhibition: 50.12 ± 18.09%
[4]
  rate of growth inhibition: 60.37 ± 14.74%
[5]
  rate of growth inhibition: 68.46 ± 13.19%
[6]; 40 mg/kg once daily for 5 days
  Swelling: 5.51 ± 0.13 mg
  Inhibition rate: 10.27%
[6]; 80 mg/kg once daily for 5 days
  Swelling: 4.76 ± 0.72* mg
  Inhibition rate: 22.42%
[6]; [19]
  Swelling: 3.87 ± 0.27** mg
  Inhibition rate: 37.01%
[7]
  rate of growth inhibition: 55.13 ± 10.32%
[8]; 80 μg/mL
  Inhibition rate: 42.27%*
  A570 nm-A630 nm: 0.7567 ± 0.07109
[8]; 100 μg/mL
  Inhibition rate: 53.16%**
  A570 nm-A630 nm: 0.6139 ± 0.0712
[8]; 120 μg/mL
  Inhibition rate: 63.68%*
  A570 nm-A630 nm: 0.4760 ± 0.07009
[9]; [15]
  Swelling: 0.25 ± 0.13
[9]; [16]
  Swelling: 0.34 ± 0.12
[9]; [17]
  Swelling: 0.44 ± 0.15
[9]; [18]
  Swelling: 0.34 ± 0.16
[9]; 160 mg/kg once a day for 3 days, 1 h after carrageenan
  Swelling: 0.24 ± 0.12
[9]; 160 mg/kg once a day for 3 days, 3 h after carrageenan
  Swelling: 0.33 ± 0.13
[9]; 160 mg/kg once a day for 3 days, 5 h after carrageenan
  Swelling: 0.43 ± 0.12
[9]; 160 mg/kg once a day for 3 days, 7 h after carrageenan
  Swelling: 0.33 ± 0.13
[10]
  rate of growth inhibition: 60.45 ± 17.25%

## mPEG-bALD10k-Arg-Gly-Ala-Asp-Arg-Ala-Gly-Gly-Gly-Gly-Arg-Gly-Asp ({mPEG‑bALD 10 kDa}-RGADRAGGGGRGD) [mPEG-bALD10k-HM-1]
[1]
  rate of growth inhibition: 75.62 ± 18.03%
[2]
  rate of growth inhibition: 70.19 ± 18.11%
[3]
  rate of growth inhibition: 68.15 ± 15.87%
[4]
  rate of growth inhibition: 68.59 ± 20.19%
[5]
  rate of growth inhibition: 80.35 ± 20.53%
[6]; 10 mg/kg once daily for 5 days
  Swelling: 5.37 ± 0.14 mg
  Inhibition rate: 11.54%
[6]; 20 mg/kg once daily for 5 days
  Swelling: 4.64 ± 0.72* mg
  Inhibition rate: 23.63%
[6]; 40 mg/kg once daily for 5 days
  Swelling: 3.59 ± 0.35** mg
  Inhibition rate: 40.88%
[7]
  rate of growth inhibition: 75.01 ± 16.20%
[8]; 40 μg/mL
  Inhibition rate: 47.95%*
  A570 nm-A630 nm: 0.6931 ± 0.07754
[8]; 60 μg/mL
  Inhibition rate: 57.43%**
  A570 nm-A630 nm: 0.5669 ± 0.07609
[8]; 80 μg/mL
  inhibition rate of HRCEC proliferation: 75.19%
  Inhibition rate: 75.19%*
  A570 nm-A630 nm: 0.3304 ± 0.07354
[9]; 40 mg/kg
  inhibition of carrageenan-induced toe swelling (in words): most effective
[10]
  rate of growth inhibition: 75.23 ± 16.41%

## mPEG-bALD20k-Arg-Gly-Ala-Asp-Arg-Ala-Gly-Gly-Gly-Gly-Arg-Gly-Asp ({mPEG‑bALD 20 kDa}-RGADRAGGGGRGD) [mPEG-bALD20k-HM-1]
[1]
  rate of growth inhibition: 70.73 ± 16.92%
[2]
  rate of growth inhibition: 66.81 ± 19.48%
[3]
  rate of growth inhibition: 60.97 ± 16.29%
[4]
  rate of growth inhibition: 62.49 ± 16.14%
[5]
  rate of growth inhibition: 75.65 ± 20.09%
[6]; 20 mg/kg once daily for 5 days
  Swelling: 5.03 ± 0.18 mg
  Inhibition rate: 17.13%
[6]; 40 mg/kg once daily for 5 days
  Swelling: 4.64 ± 0.34* mg
  Inhibition rate: 23.62%
[6]; 80 mg/kg once daily for 5 days
  Swelling: 3.78 ± 0.27** mg
  Inhibition rate: 37.76%
[7]
  rate of growth inhibition: 70.21 ± 18.32%
[8]; 60 μg/mL
  Inhibition rate: 47.53%*
  A570 nm-A630 nm: 0.6987 ± 0.07838
[8]; 80 μg/mL
  Inhibition rate: 57.32%**
  A570 nm-A630 nm: 0.5683 ± 0.07055
[8]; 100 μg/mL
  Inhibition rate: 69.12%*
  A570 nm-A630 nm: 0.4112 ± 0.07405
[9]; [11]
  Swelling: 0.25 ± 0.15
[9]; [12]
  Swelling: 0.35 ± 0.14
[9]; [13]
  Swelling: 0.42 ± 0.15
[9]; [14]
  Swelling: 0.36 ± 0.18
[10]
  rate of growth inhibition: 69.54 ± 18.37%

From patent publication US10869931B2, “Polyethylene glycol-modified angiogenesis inhibitor HM-1 and application thereof” (NANJING ANJI BIOLOGICAL TECHNOLOGY CO.,LTD, priority 2016, dated 2020)
